In a melting point compilation (Tetko et al.; mined from patent text by program, amines drawn as free bases though some values may be those of a salt):

| SMILES | melting point |
| --- | --- |
| Clc1ccc(-c2nc[nH]c2-c2cccs2)cc1 | 244 to 245 °C |
| C[C@H](Oc1ccc(-c2csc(S(N)(=O)=O)c2)cc1)[C@H](O)CCc1cccnc1 | 151 to 152 °C |
| O=C(Cc1c(-c2ccccc2)c2cc(O)c(Cl)cc2oc1=O)Nc1ccc(F)cc1C(F)(F)F | 240 to 243 °C |
| COc1ccc2c(c1)C1(CCN(Cc3ccccc3)CC1)OC2c1ccc(F)cc1 (centres undefined) | 86 to 88 °C |
| N#Cc1ccc2c(c1)Sc1cc3c(cc1C=C2)CCC3 | 142 to 143 °C |
| Oc1ccc(-c2cc3ncccc3cn2)cc1 | 219 to 221 °C |
| CCCCN1C(=O)C2CC(c3ccc(N)cc3)(C2)C1=O | 178 to 179 °C |
| Cc1ccc(-c2ccc(C(=O)Nc3ccc4cc(CN5CCCC5)ccc4c3)cn2)cc1 | 260 to 262 °C |
| COc1ccc(C2CNCc3c(OC)cccc32)cc1OC (centres undefined) | 106 to 112 °C |
| C#CCOc1ccccc1-n1cnc2cc(N)ccc21 | 40 to 42 °C |
| Nc1nc2ccccc2c2c1nc1n2C(COCc2ccc(F)cc2)COC1 (centres undefined) | 134 to 137 °C |
| CN1CCC(c2c[nH]c3ccc(/C=C/S(N)(=O)=O)cc23)CC1 | 208 to 209 °C |
| O=C(O)c1ccc2c(c1)Cc1ccccc1CO2 | 240 to 244 °C |
| O=C1CCC(N2C(=O)c3cccc(Nc4ccc5c(c4)OCO5)c3C2=O)C(=O)N1 (centres undefined) | > 260 °C |
| N#Cc1c(Cl)[nH]c(-c2ccc(Cl)c(Cl)c2)c1Cl | > 200 °C |
| CNc1ccc(C=Cc2ccc(N)cc2)cc1 | 144 to 145 °C |
| CCCCCCCOC1CCC(=O)N1 (centres undefined) | 52 to 54 °C |
| Cn1ncnc1COc1nc2c(-c3ccccc3)nncc2cc1-c1ccccc1 | 222 to 223 °C |
| O=C(c1cc2ccc(N3CCOCC3)cc2o1)C12CC3CC(CC(C3)C1)C2 | 123 to 125 °C |
| CCOC(=O)COc1cccc2c1CCc1sc(SCC(c3ccccc3)c3ccccc3)nc1-2 | 92 to 93 °C |
| O=S(=O)(c1ccc2ccc(Br)cc2c1)N(Cc1ccccc1)Cc1ccccc1 | 127 to 129 °C |
| O=C1C=C(c2ccc(O)cc2)C(=O)N1 | 158 to 162 °C |
| Nc1nccc(Oc2ccc3c(c2)CCCCN3C(=O)Nc2cccc(C(F)(F)F)c2)n1 | 207 °C |

| SMILES | melting point |
| --- | --- |
| O=C(CCN1C(=O)c2ccccc2C1=O)c1ccc(Cl)cc1C(=O)c1ccccc1 | 163 to 164 °C |
| O=c1oc(OCCBr)c(Cl)c2ccc(NC(=S)Nc3ccccc3)cc12 | 157 to 158 °C |
| O=C1Nc2ccc(Cl)cc2C1(Cl)c1ccccc1OC(F)(F)F (centres undefined) | 185 °C |
| Cc1ccc2nc(Cl)c(Cl)nc2c1 | 112 to 115 °C |
| CCOCc1cc(N2C(=O)C3=C(CCCC3)C2=O)c(F)cc1Cl | 89 to 91 °C |
| CC(C)c1nn(-c2ccc(C(F)(F)F)cn2)cc1C=O | 89 to 90 °C |
| O=C1NCCc2sccc21 | 94 °C |
| CC1(C)C(=O)Nc2cc3[nH]c(-c4c[nH]c5ccccc45)nc3cc21 | 243 to 245 °C |
| O=C(C1CCCCC1)C1CCN(C(=O)c2cc(O)c(O)c([N+](=O)[O-])c2)CC1 | 155 to 165 °C |
| O=C(OCc1ccc([N+](=O)[O-])cc1)N1CCC(I)CC1 | 102 to 104 °C |
| NS(=O)(=O)c1cccc(-c2noc(-c3cnn4c(C(F)F)cc(-c5ccc(C(F)(F)F)cc5)nc34)n2)c1 | 267 °C |
| O=C1Cc2c3c(cc4ccccc24)N(c2ccccc2)C(=O)CN13 | 296 to 300 °C |
| CC(C)(C)c1cc(C(=O)c2ccn(Cc3ccccc3)c2)cc(C(C)(C)C)c1O | 123 to 124 °C |
| O=C(Nc1cc(C(F)(F)F)ccc1N1CCOCC1)c1ccncc1 | 172 to 173 °C |
| CC(=C\c1ccccc1)/C=C(\C)C(=O)NCCCCCC(=O)NO | 120 to 122 °C |
| Cc1nn(S(=O)Oc2ccccc2)c2ccccc12 (centres undefined) | 141 to 143 °C |
| Cc1ccc2ncnc(N3CCc4ccc(Cl)cc43)c2c1 | 138 to 141 °C |
| CNC(=N[N+](=O)[O-])NCCSCc1[nH]cnc1C | 112 to 114 °C |
| O=C(O)c1ccccc1C(=O)N1CCN(c2cc3c(cc2F)c(=O)c(C(=O)O)c2sccn23)CC1 | 277 to 278 °C |
| O=S(=O)(CC1CCCCN1S(=O)(=O)c1ccccc1)c1ccc(Cl)cc1 (centres undefined) | 129 to 131 °C |
| CCNC(=S)NCc1cccc2c1C(=O)N(C1CCC(=O)NC1=O)C2=O (centres undefined) | 154 to 156 °C |
| N#CC1=CC(Br)=NC1(N)C#N (centres undefined) | > 210 °C |
| COc1cc2c(cc1-c1ccoc1)C(=CNc1ccc(N3CCN(C)CC3)cc1)C(=O)NC2=O | 198 to 220 °C |

Second part, the molecule after the results:

| melting point | SMILES |
| --- | --- |
| 107 to 108 °C | COc1nc2c(C)cccc2c2c1CCN2c1ccccc1C |
| 194 °C | CC(=O)Nc1nc(C)c(S(=O)(=O)NC(C)(C)CO)s1 |
| 221 to 223 °C | COc1ccc(S(=O)(=O)NC(=O)c2ccc(C(=O)NCCO)nc2)cc1 |
| 195 to 196 °C | CC(C)Oc1ccc(-c2noc(-c3ccc(CN4CC(C(=O)O)C4)cc3)n2)cc1Cl |
| 141 to 142 °C | CN(C)C1CCCN(C(=O)c2n[nH]c3ccccc23)C1 (centres undefined) |
| 138 to 140 °C | COc1cc(NC2CC3CCC(C2)N3Cc2ccccc2)ccc1C(N)=O (centres undefined) |
| 68 to 69 °C | CCc1ccc(C(=O)CCCSc2nnnn2C)cc1 |
| 150 to 152 °C | COc1ccc(-n2nc(Sc3ccc(F)cc3)c(C)c(C#N)c2=O)cc1 |
| 186 °C | COc1nc2ncnn2c(N2CCC(C)CC2)c1-c1ccc(F)cc1Cl |
| 125 to 126 °C | CC(C)(COc1ccc(C(N)=O)cn1)NCc1ccccc1 |
| 270 to 271 °C | NC(=O)Cn1c(-c2ccc(Cl)cc2)nc2cccnc21 |
| 85 to 95 °C | C[C@@H](Oc1ccc2c(c1)N(C)C(=O)N(c1ccc(Cl)cc1)S2(=O)=O)C(=O)O |
| 180 to 181 °C | COc1ccc(Cn2cc3nc(Cl)nc(-c4c(F)cccc4OC)c3n2)cc1 |
| 165 to 167 °C | CCN(CC)c1ccc(CNc2cc(C(=O)Nc3ccc(F)c(F)c3)ccc2OC)cc1 |
| 241 to 242 °C | Cc1c(-c2ccncc2)[nH]c2c1C(=O)CC(C)(C)C2 |
| 138 to 140 °C | CCOC(=O)C=Cc1cc([N+](=O)[O-])ccc1Cl |
| 191 to 192 °C | C[C@@H](NC(=O)c1cnn(-c2ccc(Cl)cc2)c1C(C)(C)C)[C@](O)(Cn1cncn1)c1ccc(F)cc1F |
| 58 to 65 °C | CC(=O)c1ccc(Cl)cn1 |
| 264 °C | CC(C)(CO)NS(=O)(=O)c1cc(NC(=O)c2cnn3c(C(F)(F)F)cc(-c4ccc(C(F)(F)F)c(OCC(F)(F)F)c4)nc23)c(Cl)s1 |
| 128 to 130 °C | CNC(=O)C1=CC(C)(COC)Oc2ccc([N+](=O)[O-])cc21 (centres undefined) |
| 158 to 160 °C | COc1ccc(CCNC(=O)Nc2ccccc2CCc2cc(C(C)(C)C)c(O)c(C(C)(C)C)c2)cc1OC |
| 265 °C | CCNc1nc(=S)n(CC)c2nc(C3CC3)[nH]c12 |
| 94 to 95 °C | COCCNC(=O)c1cccc(-c2cccc3cc(Cc4cccc(C(F)(F)F)c4)sc23)c1F |
| 199 °C | CN(C)CC(=O)NCc1cccc(-c2csc(N=C(N)N)n2)n1 |
| 168 to 170 °C | CCOC(=O)c1c(CC(=O)O)n(-c2ccc(OC(F)(F)F)cc2)c2ccc(Oc3ccc(CCl)cn3)cc12 |
| 129 to 132 °C | COc1cc(NC(=O)N(Cc2ccccc2)C2CCCCC2)c(OC(C)=O)c(C(C)(C)C)c1 |
| 121 to 122 °C | CC(=O)OC1CC2=CC(=O)C3C4CCC(C(C)CCCC(C)C)C4(C)CCC3C2(C)C(OC(C)=O)C1 (centres undefined) |

| melting point | SMILES |
| --- | --- |
| 48 to 50 °C | CCN(CC)CCNC(=O)c1cc(N(C)S(C)(=O)=O)ccc1OC |
| 237 to 238 °C | CCCCC(=O)NC(Cc1ccccc1)C(=O)Nc1c(C(C)C)cccc1C(C)C (centres undefined) |
| 153 to 155 °C | CCCN(CCC)CC1CCCN(CCNC(=O)N2c3ccccc3NC(=O)c3c2ccn3C)C1 (centres undefined) |
| 290 to 291 °C | Cc1ccc2nc(C)c(C(=O)NNC(=O)CCl)n2c1 |
| 165 to 167 °C | COc1cccc(OC)c1C(=O)Nc1nnc(C(C)(C)CSC)s1 |
| 68 to 72 °C | CCCc1nn(CC)c(C(=O)O)c1Cc1ccc(-c2ccccc2NS(=O)(=O)C(F)(F)F)cc1 |
| 190 to 193 °C | CC(=O)Oc1ccc(C(=O)c2cccc(C(=O)O)c2)cc1 |
| 146 to 147 °C | COc1ccc(OC)c2c1C(=O)C=C(SCCCCCCCCCCC(=O)O)C2=O |
| 73 to 75 °C | COc1ccc(OCC(O)CNC(C)(C)C)c(C)c1C (centres undefined) |
| 110 to 111 °C | CCOC(=O)Cc1nc(-c2ccc(F)cc2)oc1-c1ccco1 |
| 90 °C | COC(C)=CC(=O)Nc1cccc(C(F)(F)F)c1 |
| 152 to 153 °C | CCOCCc1nc(NS(=O)(=O)c2cccc(Cl)c2C)sc1CN(C)C |
| 156 °C | CCCc1nc(SCCCCC(=O)O)c(C(=O)O)n1Cc1cc2c(cc1Cl)OCO2 |
| 148 °C | COC(=O)c1cc([N+](=O)[O-])c(-c2ccccc2)c([N+](=O)[O-])c1 |
| 246 °C | COc1ccc(-c2nc(-c3c[nH]c4ccccc34)[nH]c2-c2ccc(OC)cc2)cc1 |
| 122 to 123 °C | CC(C)N1Cc2c(Cl)nc(Cl)nc2C1=O |
| 150 °C | CCOC(=O)c1c2ccc(CC(=O)NOC(=O)NCCCCN)ccc-2c(C(=O)OCC)c1N |
| 192 °C | COC(=O)c1ccccc1S(=O)(=O)Nn1cnn(-c2nc(OC)cc(OC)n2)c1=O |
| 71 to 72 °C | CCCc1c(OCCCOc2ccc(C(=O)OCCCN(C)C)cc2Br)ccc(C(C)=O)c1O |
| 132 to 134 °C | CC(C)(C)C1(COc2ccc(Cl)cc2)OS(=O)NC1=O (centres undefined) |
| 281 to 282 °C | COC(=O)CCCCOc1ccc2nc3[nH]c(=O)[nH]c3cc2c1 |
| 138 °C | COc1ccccc1OCC(O)CN1CCC(N2CCNC2=O)CC1 (centres undefined) |
| 94.5 to 96 °C | COCc1nc(C(C)(C)O)c(C(=O)OC)[nH]1 |
| 158 to 161 °C | Cc1ccc2cccc(OCc3cccc(N(C)C(=O)CN4C(=O)c5ccccc5C4=O)c3C)c2n1 |
| 198 to 199 °C | CCc1noc(-c2cn(-c3c[nH]c4ccccc34)cn2)n1 |
| 81 to 82 °C | CCN1CCCC1CNc1ccc(-c2ccnc(Nc3cc(OC)c(OC)c(OC)c3)n2)cn1 (centres undefined) |
